pIC50: −log10 of the molar value.
System: 695427-040-R-J1-PDC complex spheroid viability
Test: Anticancer human tumor 695427-040-R-J1-PDC patient-derived colon adenocarcinoma cell line growth inhibition [POLQ]
Conditions: for pIC50: curve of first compound; for viability, T/C: stronger effect = lower value
Description: Multicellular complex tumor spheroid response to Polymerase (POL) inhibitors (novobiocin, ART-558, RP6685) in combination with a variety of drugs and investigational agents in selected tumor cell lines
The POL inhibitors (novobiocin, ART-558, and RP6685) were evaluated both individually and in combination with standard of care and investigational anticancer small molecules within a complex spheroid model of solid tumors. . Complex spheroids include a stromal component modeled by human endothelial cells (HUVEC) and fibroblasts modeled by human mesenchymal stem cells (MSCs). The concentration ranges selected for each drug and investigational agent were based upon clinically achievable concentrations if the clinical Cmax of the agent was known.
Compounds. The drugs and investigational agents: novobiocin (NSC847541), ART-558 (NSC835418), RP-6685 (NSC848927), peposertib (NSC802822), ceralasertib (NSC780249), elimusertib (NSC800525), camonsertib (NSC841442), AZD-1390 (NSC803789), olaparib (NSC753686), talazoparib (NSC767125), rucaparib (NSC756644), sotorasib (NSC818433), MRTX-1133 (NSC836407), SN-38 (NSC673596), topotecan (NSC609699), epotoside (NSC141540), doxorubicin (NSC123127), gemcitabine (NSC613327), 5-fluorouracil (NSC19893), paclitaxel (NSC125973), vemurafenib (NSC761431), MSA-2 (NSC828583), SN-011 (NSC837082), adavosertib (NSC754352), prexasertib (NSC758257), carboplatin (NSC241240) and oxaliplatin (NSC266046), were obtained from the National Cancer Institute (NCI) Developmental Therapeutics Program Chemical Repository (21). The FDA-approved anticancer drug set is available from the Developmental Therapeutics Program at https://dtp.cancer.gov/organization/dscb/obtaining/. […] The stock solutions were prepared in dimethyl sulfoxide (DMSO, Sigma-Aldrich, St. Louis, MO, cat. D2650), except for the platinum compounds which were prepared in saline (Quality Biological, Gaithersburg, MD, cat. 114-055-101), at 800-fold the tested concentration and stored at -70 degrees C prior to their use. All drugs and investigational agents were tested over a range starting from a high concentration at or near the clinical Cmax and decreasing in half-log increments. If the clinical Cmax for an agent had not been determined, the highest concentration tested was 10 microM, except for SN-38, which was tested at a high concentration of 1 microM.
Cell Culture. All cells were maintained in an incubator at 37 degrees C and 5% CO2 with 95% humidity. The PDC lines were cultured according to standard operating procedures established by the NCI PDMR (https://pdmr.cancer.gov). Table 3 of the manuscript, lists the cell lines along with the number of the three cell types plated to form the mct-spheroids and media for tumor cell growth. After thawing, all PDC lines, except 997537-175-T-J1-PDC and 415267-285-R-J2-PDC, were cultured in Matrigel-coated flasks prepared with a working solution of 1X Ham's F-12 nutrient mix, without supplementation (Thermo Fisher Scientific, cat. 11765054), 100 U/mL penicillin-streptomycin (Thermo Fisher Scientific, cat. 15140122), and 2.5% Matrigel (Corning Inc., Corning, NY, cat. 354248) for the first three passages. The two PDC lines 997537-175-T-J1-PDC and 415267-285-R-J2-PDC were cultured on uncoated flasks. The 857933-349-R-J2-PDC line was cultured in 6C/Colon 1B media containing advanced DMEM/F-12 (Thermo Fisher Scientific, cat. 12634028), 10 mM HEPES (Thermo Fisher Scientific, cat. 15630080), 1X GlutaMAX supplement (Thermo Fisher Scientific, cat. 35050061), 0.1 mg/mL primocin (InvivoGen, San Diego, CA, cat. ant-pm-2), 10% defined fetal bovine serum, heat inactivated (HyClone Laboratories Inc., Logan, UT, cat. SH30070.03HI), 50% L-WRN conditioned media (ATCC, cat. CRL-3276), 1.25 mM N-Acetyl-L-cysteine (Sigma-Aldrich, cat. A9165), 10 mM nicotinamide (Sigma-Aldrich, cat. N0636), 1X B-27 supplement (Thermo Fisher Scientific, cat. 17504044), 1X N-2 supplement (Thermo Fisher Scientific, cat. […]
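Further: spheroids exposed to compounds for seven days.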
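Wherever viability, T/C is given: 100% = DMSO vehicle control viability.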

`CC(=O)O[C@H]1C(=O)[C@@]2(C)[C@H]([C@H](OC(=O)c3ccccc3)[C@]3(O)C[C@H](OC(=O)[C@H](O)[C@@H](NC(=O)c4ccccc4)c4ccccc4)C(C)=C1C3(C)C)[C@]1(OC(C)=O)CO[C@@H]1C[C@@H]2O` + Nc1ccc(C#CCN(C(=O)Cc2ncc(C(F)(F)F)cc2C(F)(F)F)c2ccc(F)cc2)nn1 was tested, and the pIC50 (second compound 0.0316 µM) was < 5.52, the pIC50 (second compound 0.1 µM) was < 5.52 and the pIC50 (second compound 0.316 µM) was < 5.52. For the same compound, the pIC50 (second compound 1 µM) was < 5.52, the pIC50 (second compound 3.16 µM) was < 5.52 and the pIC50 (second compound 10 µM) was < 5.52. For the same compound, the viability, T/C (second compound 0.0316 µM, first compound 0.00949 µM) was 98.2%, the viability, T/C (second compound 0.0316 µM, first compound 0.03 µM) was 93.4% and the viability, T/C (second compound 0.0316 µM, first compound 0.0949 µM) was 93.3%. The viability, T/C (second compound 0.0316 µM, first compound 0.3 µM) was 97.1%, the viability, T/C (second compound 0.0316 µM, first compound 0.949 µM) was 97.9% and the viability, T/C (second compound 0.0316 µM, first compound 3 µM) was 81.2%. For the same compound, the viability, T/C (second compound 0.1 µM, first compound 0.00949 µM) was 99.9%, the viability, T/C (second compound 0.1 µM, first compound 0.03 µM) was 99.6% and the viability, T/C (second compound 0.1 µM, first compound 0.0949 µM) was 91.8%. It also gave a viability, T/C (second compound 0.1 µM, first compound 0.3 µM) of 91.5%, a viability, T/C (second compound 0.1 µM, first compound 0.949 µM) of 89.5% and a viability, T/C (second compound 0.1 µM, first compound 3 µM) of 79.7%. It also gave a viability, T/C (second compound 0.316 µM, first compound 0.00949 µM) of 108%, a viability, T/C (second compound 0.316 µM, first compound 0.03 µM) of 101% and a viability, T/C (second compound 0.316 µM, first compound 0.0949 µM) of 88.4%. It also gave a viability, T/C (second compound 0.316 µM, first compound 0.3 µM) of 91.6%, a viability, T/C (second compound 0.316 µM, first compound 0.949 µM) of 88.9% and a viability, T/C (second compound 0.316 µM, first compound 3 µM) of 90.3%. The viability, T/C (second compound 1 µM, first compound 0.00949 µM) was 102%, the viability, T/C (second compound 1 µM, first compound 0.03 µM) was 93.3% and the viability, T/C (second compound 1 µM, first compound 0.0949 µM) was 102%. It also gave a viability, T/C (second compound 1 µM, first compound 0.3 µM) of 99.3%, a viability, T/C (second compound 1 µM, first compound 0.949 µM) of 90.9% and a viability, T/C (second compound 1 µM, first compound 3 µM) of 78.8%. It also gave a viability, T/C (second compound 3.16 µM, first compound 0.00949 µM) of 106%, a viability, T/C (second compound 3.16 µM, first compound 0.03 µM) of 84.7% and a viability, T/C (second compound 3.16 µM, first compound 0.0949 µM) of 95.1%. The viability, T/C (second compound 3.16 µM, first compound 0.3 µM) was 90.5%, the viability, T/C (second compound 3.16 µM, first compound 0.949 µM) was 88.2% and the viability, T/C (second compound 3.16 µM, first compound 3 µM) was 86.8%. The viability, T/C (second compound 10 µM, first compound 0.00949 µM) was 92.7%, the viability, T/C (second compound 10 µM, first compound 0.03 µM) was 82.7% and the viability, T/C (second compound 10 µM, first compound 0.0949 µM) was 86.7%. It also gave a viability, T/C (second compound 10 µM, first compound 0.3 µM) of 91.2%, a viability, T/C (second compound 10 µM, first compound 0.949 µM) of 90.2% and a viability, T/C (second compound 10 µM, first compound 3 µM) of 86.4%.
